Values after ≈ are worked out from the molar mass of the structure shown. Where a name gives a salt, the structure may show the parent alone. Read-outs that look alike come from different tables or passages of the source. Where a SMILES comes first, the peptide text is derived from it. The star is where a group is joined. Doxorubicin(3'-N) = COc1cccc2c1C(=O)c1c(O)c3c(c(O)c1C2=O)C[C@@](O)(C(=O)CO)C[C@@H]3O[C@H]1C[C@H](N*)[C@H](O)[C@H](C)O1; dGluconoyl = O=C([C@H](O)[C@@H](O)[C@H](O)[C@H](O)CO)*; NH(9-Et-carbazol-3-yl) = CCn1c2ccccc2c2cc(N*)ccc21; AMC = Cc1cc(=O)oc2cc(N*)ccc12
Legend:
[1] = pH 8.1, aqueous buffer
[2] = Table IV; same values as Table I
[3] = Solubility in distilled water / aqueous solution; format: physicochemical; conditions: for solubility in distilled water: at 20° C.
Protocol: The solubility of the PHA-L-Ala-L-Ala-L-Pro-L-Ala-AEC is greater than 80 mg/ml in distilled water or a buffer with a pH between 3 and 9.
The solubility of this compound in distilled water is 2.0 mM/l at 20° C.
The influence of the length of the N-acylating polyhydroxyalcanoyl group on the water solubility of fluorogenic substrates is shown in Table III in the case of a chymotrypsin specific substrate PHA-L-Ala-L-Ala-L-Phe-7-amido-4-methylcoumarin.

mice = assay: Toxicity of prodrugs on mice; format: in vivo; conditions: for Apparent lesions: two intravenous injections at days 0 and 2, footnotes to day 30 column; for Number of surviving mice at day 8 / Number of surviving mice at day 30 / Weight variation at day 8: two intravenous injections at days 0 and 2, mg/kg/injection: ADR 19,7, GlcA-Gly-Pro-Lys-ADR 35,1, GlcA-Ile-Phe-Lys-ADR 37,0
From the text: GlcA-Gly-Pro-Lys-Adriamycin and GlcA-Ile-Phe-Lys-Adriamycin was studied on mice after two intravenous injections at days 0 and 2.

[4] = test system: leucemic cells L1210, Lewis lung carcinoma "3LL"; assay: Penetration into and death of tumor cells; format: cell-based
[5] = Table III, water solubility, 20° C., read-out: SOLUBILITY (mM AT 20° C.)

CCn1c2ccccc2c2cc(NC(=O)[C@H](CCCNC(=N)N)NC(=O)[C@H](CC(C)C)NC(=O)[C@@H](NC(=O)[C@H](O)[C@@H](O)[C@H](O)[C@H](O)CO)C(C)C)ccc21 [GlcA--Val--Leu--Arg--AEC]
solubility [1]: 227 mM (≈ 172 mg/mL) | solubility [2]: 227 mM (≈ 172 mg/mL)

Cc1cc(=O)oc2cc(NC(=O)[C@H](Cc3ccccc3)NC(=O)[C@H](C)NC(=O)[C@H](C)NC(=O)[C@H](O)[C@H](O)[C@H](O)CO)ccc12 [ribonoyl-L-Ala-L-Ala-L-Phe-AMC]
solubility [3, 5]: 2 mM | solubility in distilled water [3]: 2.0 mM/l

CC[C@H](C)[C@H](NC(=O)CNC(=O)[C@H](O)[C@@H](O)[C@H](O)[C@H](O)CO)C(=O)N[C@@H](Cc1ccccc1)C(=O)N[C@@H](CCCCN)C(=O)Nc1ccc2c(c1)c1ccccc1n2CC [GlcA--Gly--Ile--Phe--Lys--AEC] (dGluconoyl-GIFK-{NH(9-Et-carbazol-3-yl)})
solubility [1]: 2.5 mM (≈ 2.08 mg/mL)

CCn1c2ccccc2c2cc(NC(=O)[C@H](CCCCN)NC(=O)[C@@H]3CCCN3C(=O)CNC(=O)[C@H](O)[C@@H](O)[C@H](O)[C@H](O)CO)ccc21 [GlcA--Gly--Pro--Lys--AEC]
solubility [1]: 380 mM (≈ 255 mg/mL) | solubility [2]: 380 mM (≈ 255 mg/mL)

CC[C@H](C)[C@H](NC(=O)[C@H](O)[C@@H](O)[C@H](O)[C@H](O)CO)C(=O)N[C@@H](CC(C)C)C(=O)N[C@@H](CCCNC(=N)N)C(=O)Nc1ccc2c(c1)c1ccccc1n2CC [GlcA--Ile--Leu--Arg--AEC]
solubility [1]: 143 mM (≈ 110 mg/mL) | solubility [2]: 143 mM (≈ 110 mg/mL)

CCn1c2ccccc2c2cc(NC(=O)[C@H](CCCCN)NC(=O)[C@H](Cc3ccccc3)NC(=O)[C@@H](NC(=O)CNC(=O)[C@H](O)[C@@H](O)[C@H](O)[C@H](O)CO)C(C)C)ccc21 [GlcA--Gly--Val--Phe--Lys--AEC] (dGluconoyl-GVFK-{NH(9-Et-carbazol-3-yl)})
solubility [1]: 4.2 mM (≈ 3.44 mg/mL) | solubility [2]: 4.2 mM (≈ 3.44 mg/mL)

CCn1c2ccccc2c2cc(NC(=O)[C@H](CCCNC(=N)N)NC(=O)[C@H](Cc3ccccc3)NC(=O)[C@@H](NC(=O)[C@H](O)[C@@H](O)[C@H](O)[C@H](O)CO)C(C)C)ccc21 [GlcA--Val--Phe--Arg--AEC]
solubility [1]: 100 mM (≈ 79.1 mg/mL) | solubility [2]: 100 mM (≈ 79.1 mg/mL)

COc1cccc2c1C(=O)c1c(O)c3c(c(O)c1C2=O)C[C@@](O)(C(=O)CO)C[C@@H]3O[C@H]1C[C@H](NC(=O)[C@H](CC(C)C)NC(=O)[C@H](CCCNC(=N)N)NC(=O)[C@@H]2CCCN2C(=O)[C@H](Cc2ccccc2)NC(=O)[C@H](O)[C@@H](O)[C@H](O)[C@H](O)CO)[C@H](O)[C@H](C)O1 [PHA-L-Phe-L-Pro-L-Arg-L-Leu-Adriamycin] (dGluconoyl-FPRL-{Doxorubicin(3'-N)})
solubility in water ([3]; water): soluble in water

CCn1c2ccccc2c2cc(NC(=O)[C@H](CCCCN)NC(=O)CNC(=O)[C@H](CO)NC(=O)[C@H](O)[C@@H](O)[C@H](O)[C@H](O)CO)ccc21 [GlcA--Ser--Gly--Lys--AEC]
solubility [1]: 54 mM (≈ 35.7 mg/mL)

CCn1c2ccccc2c2cc(NC(=O)[C@H](CCCCN)NC(=O)CNC(=O)[C@H](CC(C)C)NC(=O)[C@@H](NC(=O)[C@H](O)[C@@H](O)[C@H](O)[C@H](O)CO)C(C)C)ccc21 [GlcA--Val--Leu--Gly--Lys--AEC] (dGluconoyl-VLGK-{NH(9-Et-carbazol-3-yl)})
solubility [1]: 62 mM (≈ 48.7 mg/mL)

CCn1c2ccccc2c2cc(NC(=O)[C@H](CCCCN)NC(=O)[C@H](CC(C)C)NC(=O)[C@@H](NC(=O)OC(C)(C)C)C(C)C)ccc21 [Boc--Val--Leu--Lys--AEC, reference compound]
solubility [1]: 2.5 mM (≈ 1.63 mg/mL)

CC[C@H](C)[C@H](NC(=O)OC(C)(C)C)C(=O)N[C@@H](Cc1ccccc1)C(=O)N[C@@H](CCCCN)C(=O)Nc1ccc2c(c1)c1ccccc1n2CC [Boc--Ile--Phe--Lys--AEC, reference compound]
solubility [1]: 0.04 mM (≈ 0.028 mg/mL)

CCn1c2ccccc2c2cc(NC(=O)[C@H](CCCCN)NC(=O)[C@H](CC(C)C)NC(=O)[C@@H](NC(=O)[C@H](O)[C@@H](O)[C@H](O)[C@H](O)CO)C(C)C)ccc21 [GlcA--Val--Leu--Lys--AEC]
solubility [1]: 250 mM (≈ 182 mg/mL) | solubility [2]: 250 mM (≈ 182 mg/mL)

CCn1c2ccccc2c2cc(NC(=O)[C@H](CCCCN)NC(=O)[C@H](Cc3ccccc3)NC(=O)[C@@H](NC(=O)[C@H](O)[C@@H](O)[C@H](O)[C@H](O)CO)C(C)C)ccc21 [GlcA--Val--Phe--Lys--AEC]
solubility [1]: 165 mM (≈ 126 mg/mL) | solubility [2]: 165 mM (≈ 126 mg/mL)

CCn1c2ccccc2c2cc(NC(=O)[C@H](C)NC(=O)[C@@H]3CCCN3C(=O)[C@H](C)NC(=O)[C@H](C)NC(=O)[C@H](O)[C@@H](O)[C@H](O)[C@H](O)CO)ccc21 [PHA-L-Ala-L-Ala-L-Pro-L-Ala-AEC] (dGluconoyl-AAPA-{NH(9-Et-carbazol-3-yl)})
solubility ([3]; aqueous with cosolvent or surfactant or cyclodextrin, in distilled water or a buffer with a pH between 3 and 9, read-out: solubility): > 80 mg/mL

CC[C@H](C)[C@H](NC(=O)[C@H](O)[C@@H](O)[C@H](O)[C@H](O)CO)C(=O)N[C@@H](Cc1ccccc1)C(=O)N[C@@H](CCCCN)C(=O)Nc1ccc2c(c1)c1ccccc1n2CC [GlcA--Ile--Phe--Lys--AEC, Glc A-Ile-Phe-Lys-AEC, HCl]
solubility [1]: 0.54 mM

CC[C@H](C)[C@H](NC(=O)[C@H](O)[C@@H](O)[C@H](O)[C@H](O)CO)C(=O)N[C@@H](CC(C)C)C(=O)N[C@@H](CCCCN)C(=O)Nc1ccc2c(c1)c1ccccc1n2CC [GlcA--Ile--Leu--Lys--AEC]
solubility [1]: 94 mM (≈ 69.8 mg/mL) | solubility [2]: 94 mM (≈ 69.8 mg/mL)

CC(=O)N[C@@H](C)C(=O)N[C@@H](C)C(=O)N[C@@H](Cc1ccccc1)C(=O)Nc1ccc2c(C)cc(=O)oc2c1 [AcAlaAlaPheAMC, reference compound] (Ac-Ala-Ala-Phe-{AMC})
solubility [3, 5]: 0.2 mM

CCn1c2ccccc2c2cc(NC(=O)[C@H](CCCNC(=N)N)NC(=O)[C@H](Cc3ccccc3)NC(=O)[C@@H](NC(=O)CNC(=O)[C@H](O)[C@@H](O)[C@H](O)[C@H](O)CO)C(C)C)ccc21 [GlcA--Gly--Val--Phe--Arg--AEC] (dGluconoyl-GVFR-{NH(9-Et-carbazol-3-yl)})
solubility [1]: 3.6 mM (≈ 3.05 mg/mL) | solubility [2]: 3.6 mM (≈ 3.05 mg/mL)

CC[C@H](C)[C@H](NC(=O)[C@H](O)[C@@H](O)[C@H](O)[C@H](O)CO)C(=O)N[C@@H](Cc1ccccc1)C(=O)N[C@@H](CCCCN)C(=O)N[C@H]1C[C@H](O[C@H]2C[C@](O)(C(=O)CO)Cc3c(O)c4c(c(O)c32)C(=O)c2c(OC)cccc2C4=O)O[C@@H](C)[C@H]1O [GlcA--Ile--Phe--Lys--ADR, Glc A-L-Ile-L-Phe-L-Lys-Adriamycin]
Apparent lesions (mice): No apparent lesion | Number of surviving mice at day 8 (mice): 8/8 | Number of surviving mice at day 30 (mice): 8/8 | Weight variation at day 8 (mice): +14,7%

COc1cccc2c1C(=O)c1c(O)c3c(c(O)c1C2=O)C[C@@](O)(C(=O)CO)C[C@@H]3O[C@H]1C[C@H](NC(=O)[C@@H](N)CC(C)C)[C@H](O)[C@H](C)O1 [L-Leu-Adriamycine, L-Leu-Adriamycin]
penetration into tumor cells ([4]; leucemic cells L1210, Lewis lung carcinoma 3LL): penetrates the tumor cells | death of tumor cells ([4]; tumor cells): causes the death of these cells

COc1cccc2c1C(=O)c1c(O)c3c(c(O)c1C2=O)C[C@@](O)(C(=O)CO)C[C@@H]3O[C@H]1C[C@H](NC(=O)[C@H](CCCCN)NC(=O)[C@@H]2CCCN2C(=O)CNC(=O)[C@H](O)[C@@H](O)[C@H](O)[C@H](O)CO)[C@H](O)[C@H](C)O1 [GlcA--Gly--Pro--Lys--ADR, PHA-Gly-L-Pro-L-Lys-Adriamycin]
Apparent lesions (mice): No apparent lesion | Number of surviving mice at day 8 (mice): 8/8 | Number of surviving mice at day 30 (mice): 8/8 | Weight variation at day 8 (mice): +15,2%

CC[C@H](C)[C@H](NC(=O)OCc1ccccc1)C(=O)N[C@@H](Cc1ccccc1)C(=O)N[C@@H](CCCCN)C(=O)Nc1ccc2c(c1)c1ccccc1n2CC [Z--Ile--Phe--Lys--AEC, reference compound]
solubility [1]: 0.03 mM (≈ 0.022 mg/mL)

CCn1c2ccccc2c2cc(NC(=O)[C@H](CCCNC(=N)N)NC(=O)CNC(=O)[C@H](CC(C)C)NC(=O)[C@@H](NC(=O)[C@H](O)[C@@H](O)[C@H](O)[C@H](O)CO)C(C)C)ccc21 [GlcA--Val--Leu--Gly--Arg--AEC] (dGluconoyl-VLGR-{NH(9-Et-carbazol-3-yl)})
solubility [1]: 67 mM (≈ 54.5 mg/mL) | solubility [2]: 67 mM (≈ 54.5 mg/mL)

CC[C@H](C)[C@H](NC(=O)[C@H](O)[C@@H](O)[C@H](O)[C@H](O)CO)C(=O)N[C@@H](Cc1ccccc1)C(=O)N[C@@H](CCCNC(=N)N)C(=O)Nc1ccc2c(c1)c1ccccc1n2CC [GlcA--Ile--Phe--Arg--AEC]
solubility [1]: 1.1 mM (≈ 0.885 mg/mL)

CCn1c2ccccc2c2cc(NC(=O)[C@H](CCCCN)NC(=O)[C@@H]3CCCN3C(=O)CNC(=O)OCc3ccccc3)ccc21 [Z--Gly--Pro--Lys--AEC, reference compound]
solubility [1]: 0.2 mM (≈ 0.125 mg/mL)

Cc1cc(=O)oc2cc(NC(=O)[C@H](Cc3ccccc3)NC(=O)[C@H](C)NC(=O)[C@H](C)NC(=O)[C@H](O)[C@@H](O)[C@H](O)[C@H](O)CO)ccc12 [gluconoyl-L-Ala-L-Ala-L-Phe-AMC]
solubility [3, 5]: 2.4 mM | solubility in distilled water [3]: 2.4 mM/l

Cc1cc(=O)oc2cc(NC(=O)[C@H](Cc3ccccc3)NC(=O)[C@H](C)NC(=O)[C@H](C)NC(=O)C(O)C(O)C(O)C(O)C(O)C(O)CO)ccc12 (stereo partly drawn) [glucooctanoyl-L-Ala-L-Ala-L-Phe-AMC]
solubility [3, 5]: 3.2 mM | solubility in distilled water [3]: 3.2 mM/l

COc1cccc2c1C(=O)c1c(O)c3c(c(O)c1C2=O)C[C@@](O)(C(=O)CO)C[C@@H]3O[C@H]1C[C@H](N)[C@H](O)[C@H](C)O1 [ADR, Adriamycin, reference compound]
Number of surviving mice at day 8 (mice): 0/8 | Number of surviving mice at day 30 (mice): 0/8 | Weight variation at day 8 (mice): -17,8%
